pIC50: −log10 of the molar value. Converted amounts (≈) assume the structure as drawn. The source made the active and inactive calls. The rule behind the calls is not given here.
Experiments:
MC-38 [1] = experiment: Antiproliferative activity against mouse MC-38 cells assessed as inhibition of cell growth incubated for 48 hrs by CCK-8 assay; type: functional, cell-based; details: MC-38, 48 h
Akkermansia muciniphila = experiment: Antibacterial activity against Akkermansia muciniphila ATCC BAA-835 assessed as bacterial growth inhibition incubated for 48 hrs by broth dilution susceptibility test; type: functional
Fusobacterium nucleatum [2] = experiment: Antibiofilm activity against Fusobacterium nucleatum ATCC 23726 assessed as downregulation of tnaA gene expression measured after 48 hrs by RT-qPCR analysis; type: functional, organism-based
Shigella flexneri = experiment: Antibacterial activity against Shigella flexneri ATCC 12022 assessed as bacterial growth inhibition incubated for 48 hrs by broth dilution susceptibility test; type: functional
Fusobacterium nucleatum [3] = experiment: Antibiofilm activity against Fusobacterium nucleatum ATCC 23726 assessed as inhibition of biofilm formation incubated for 48 hrs by crystal violet staining based assay; type: functional, organism-based; details: dose 0.5-16 µg/ml
Fusobacterium nucleatum [4] = experiment: Inhibition of Fusobacterium nucleatum ATCC 23726 stimulated mouse MC-38 cell migration assessed as reduction in number of migrating cells at 16 to 32 ug/ml incubated for 48 hrs by crystal violet staining based transwell assay; type: functional; details: dose 16-32 µg/ml
Enterococcus faecalis = experiment: Antibacterial activity against Enterococcus faecalis ATCC 29212 assessed as bacterial growth inhibition incubated for 48 hrs by broth dilution susceptibility test; type: functional
[5] = Cytotoxicity against human L02 cells assessed as inhibition of cell growth incubated for 48 hrs by CCK-8 assay; type: toxicity, cell-based
[6] = Acute toxicity in po dosed ICR mouse assessed as kidney damage by measuring atrophy of glomerulus at 1500 mg/kg, po measured after 7 days by H and E staining based analysis; type: organism-based; details: in vivo, 168 h, time 7 day
L02 = experiment: Downregulation of HPPD gene expression in human L02 cells at 10 to 50 uM incubated for 48 hrs by RT-qPCR analysis; type: functional, cell-based; details: dose 10-50 µM
[7] = system: Lactobacillus acidophilus; experiment: Antibacterial activity against Lactobacillus acidophilus ATCC CGMCC 1.577 assessed as bacterial growth inhibition incubated for 48 hrs by broth dilution susceptibility test; type: functional
[8] = Acute toxicity in ICR mouse assessed as death rate at 2592 mg/kg, po measured after 7 days; type: organism-based; details: in vivo, time 7 day, read-out: Activity
[9] = system: Salmonella enterica subsp. enterica serovar Paratyphi B; experiment: Antibacterial activity against Salmonella paratyphi B ATCC CMCC50094 assessed as bacterial growth inhibition incubated for 48 hrs by broth dilution susceptibility test; type: functional
[10] = Acute toxicity in po dosed ICR mouse assessed as lung damage by measuring thickening of alveolar walls at 1500 mg/kg, po measured after 7 days by H and E staining based analysis; type: organism-based; details: in vivo, 168 h, time 7 day
[11] = system: Peptostreptococcus anaerobius; experiment: Antibacterial activity against Peptostreptococcus anaerobius ATCC 27337 assessed as bacterial growth inhibition incubated for 48 hrs by broth dilution susceptibility test; type: functional
[12] = Acute toxicity in ICR mouse assessed as death rate at 2160 mg/kg, po measured after 7 days; type: organism-based; details: in vivo, time 7 day, read-out: Activity
Fusobacterium nucleatum [13] = experiment: Antibacterial activity against Fusobacterium nucleatum ATCC 23726 assessed as bacterial growth inhibition incubated for 48 hrs by broth dilution susceptibility test; type: functional
Fusobacterium nucleatum [14] = experiment: Antibacterial activity against Fusobacterium nucleatum ATCC 23726 assessed as downregulation of NTR gene expression incubated for 48 hrs by RT-qPCR analysis; type: functional, organism-based
Staphylococcus aureus = experiment: Antibacterial activity against Staphylococcus aureus ATCC 6538 assessed as bacterial growth inhibition incubated for 48 hrs by broth dilution susceptibility test; type: functional
[15] = Acute toxicity in po dosed ICR mouse assessed as animal death measured after 7 days; type: organism-based; details: in vivo, time 7 day
HCT-116 = experiment: Antiproliferative activity against human HCT-116 cells assessed as inhibition of cell growth incubated for 48 hrs by CCK-8 assay; type: functional, cell-based; details: HCT-116, 48 h
[16] = Cytotoxicity against HUVEC cells assessed as inhibition of cell growth incubated for 48 hrs by CCK-8 assay; type: toxicity, cell-based; details: human
Escherichia coli = experiment: Antibacterial activity against Escherichia coli […] assessed as bacterial growth inhibition incubated for 48 hrs by broth dilution susceptibility test; type: functional
Fusobacterium nucleatum [17] = experiment: Antibacterial activity against Fusobacterium nucleatum ATCC 23726 assessed as bacterial growth inhibition incubated for 72 hrs by turbidimeter analysis; type: functional, organism-based
[18] = Acute toxicity in po dosed ICR mouse assessed as kidney damage at 1500 mg/kg, po measured after 7 days by H and E staining based analysis; type: organism-based; details: in vivo, 168 h, time 7 day
[19] = Acute toxicity in po dosed ICR mouse assessed as liver damage at 1500 mg/kg, po measured after 7 days by H and E staining based analysis; type: organism-based; details: in vivo, 168 h, time 7 day
[20] = Drug metabolism assessed as NTR(unknown origin)-mediated metabolism at 10 mM incubated for 2 hrs in presence of NADH by LC-MS analysis; type: ADME; details: bacteria, 10000 µM
[21] = Metabolic stability in mouse liver microsomes assessed as half life at 1 uM incubated for 45 mins in presence of NADPH by LC-MS/MS analysis; type: ADME, Microsome
Fusobacterium nucleatum [22] = experiment: Antibacterial activity against Fusobacterium nucleatum ATCC 23726 assessed as bacterial growth inhibition at 8 ug/ml incubated for 72 hrs by turbidimeter analysis relative to control; type: functional; set-up: scale not given: the % may be the effect or the level left; details: dose 8 µg/ml
Fusobacterium nucleatum [23] = experiment: Antibiofilm activity against Fusobacterium nucleatum ATCC 23726 assessed as inhibition of biofilm formation at 1 ug/ml incubated for 48 hrs by crystal violet staining based assay relative to control; type: functional
[24] = Acute toxicity in po dosed ICR mouse assessed as spleen damage at 1500 mg/kg, po measured after 7 days by H and E staining based analysis; type: organism-based; details: in vivo, 168 h, time 7 day
Fusobacterium nucleatum [25] = experiment: Antibacterial activity against Fusobacterium nucleatum ATCC 23726 assessed as bacterial growth inhibition at 4 ug/ml incubated for 72 hrs by turbidimeter analysis; type: functional, organism-based; details: dose 4.0 µg/ml
[26] = Acute toxicity in po dosed ICR mouse assessed as lung damage at 1500 mg/kg, po measured after 7 days by H and E staining based analysis; type: organism-based; details: in vivo, 168 h, time 7 day
[27] = Acute toxicity in ICR mouse assessed as death rate at 1250 to 2592 mg/kg, po measured after 7 days; type: organism-based; details: in vivo, dose 1250-2592 mg/kg, time 7 day, read-out: Activity
[28] = Acute toxicity in po dosed ICR mouse assessed as heart damage at 1500 mg/kg, po measured after 7 days by H and E staining based analysis; type: organism-based; details: in vivo, 168 h, time 7 day
Fusobacterium nucleatum [29] = experiment: Antibacterial activity against Fusobacterium nucleatum ATCC 23726 assessed as bacterial growth inhibition at 8 ug/ml incubated for 72 hrs by turbidimeter analysis; type: functional, organism-based; details: dose 8.0 µg/ml
Fusobacterium nucleatum [30] = experiment: Inhibition of Fusobacterium nucleatum ATCC 23726 stimulated mouse MC-38 cell migration assessed as reduction in number of migrating cells at 2 to 4 ug/ml incubated for 48 hrs by crystal violet staining based transwell assay; type: functional; details: dose 2-4 µg/ml
[31] = Oral bioavailability in Sprague-Dawley rat at 20 mg/kg measured upto 24 hrs by LC-MS/MS analysis; type: ADME, organism-based; details: in vivo
[32] = Half life in Sprague-Dawley rat at 1 mg/kg, iv measured upto 24 hrs by LC-MS/MS analysis; type: ADME, organism-based; details: in vivo
[33] = Clearance in Sprague-Dawley rat at 1 mg/kg, iv measured upto 24 hrs by LC-MS/MS analysis; type: ADME, organism-based; details: in vivo
MC-38 [34] = experiment: Potency index, ratio of nitisinone IC50 to test compound IC50 for antiproliferative activity against mouse MC-38 cells assessed as inhibition of cell growth incubated for 48 hrs by CCK-8 assay; type: functional
[35] = Tmax in Sprague-Dawley rat at 20 mg/kg, po measured upto 24 hrs by LC-MS/MS analysis; type: ADME, organism-based; details: in vivo
[36] = Cmax in Sprague-Dawley rat at 1 mg/kg, iv measured upto 24 hrs by LC-MS/MS analysis; type: ADME, organism-based; set-up: dose 1 mg/kg, time < 24 hrs, route iv; details: in vivo

SMILES	pIC50 (MC-38 [1])	MIC50 (Akkermansia muciniphila)	Activity (Fusobacterium nucleatum [2])	MIC50 (Shigella flexneri)	inhibition (Fusobacterium nucleatum [3])	MIC50 (Enterococcus faecalis)	IC50 at 48 h [5]	Activity (L02)	MIC50 [7]	MIC50 [9]	MIC50 [11]	MIC50 (Fusobacterium nucleatum [13])	Activity (Fusobacterium nucleatum [14])	MIC50 (Staphylococcus aureus)	LD50 at 168 h [15]	pIC50 (HCT-116)	IC50 at 48 h [16]	MIC50 (Escherichia coli)	Activity (Fusobacterium nucleatum [17])	Activity (Fusobacterium nucleatum [25])	other results
O=C1CCCC(=O)C1C(=O)c1ccc(C(F)(F)F)cc1[N+](=O)[O-] [NITISINONE]	4.02	> 64 µg/mL	Dose-Dependent Effect	> 64 µg/mL	Dose-Dependent Effect	> 64 µg/mL	104 µM	Active	64 µg/mL (≈ 194 µM)	> 64 µg/mL	> 64 µg/mL	8 µg/mL (≈ 24.3 µM)	Dose-Dependent Effect	> 64 µg/mL	1610 mg/kg	3.97	338 µM	> 64 µg/mL			inhibition (Fusobacterium nucleatum [4]): Active; Activity [6]: Toxic; mortality at 168 h [8]: 90%; Activity [10]: Toxic; mortality at 168 h [12]: 100%
O=[N+]([O-])c1ccc(COc2ccc([N+](=O)[O-])c(Br)c2)o1	4.59	> 64 µg/mL	Dose-Dependent Effect	> 64 µg/mL	Dose-Dependent Effect	64 µg/mL (≈ 187 µM)	60 µM	Active	64 µg/mL (≈ 187 µM)	> 64 µg/mL	32 µg/mL (≈ 93.3 µM)	2 µg/mL (≈ 5.83 µM)	Dose-Dependent Effect	64 µg/mL (≈ 187 µM)	> 2590 mg/kg	4.21	16 µM	16 µg/mL (≈ 46.6 µM)	Dose-Dependent Effect	Active	Activity [18]: Non-Toxic; Activity [19]: Non-Toxic; Drug metabolism [20]: Metabolite_Detected; half-life at 1 µM [21]: 21.3 min; Activity (Fusobacterium nucleatum [22]): ~100%; inhibition at 1 µg/mL (Fusobacterium nucleatum [23]): > 50%; Activity [24]: Non-Toxic; MIC90 (Fusobacterium nucleatum [13]): 2 µg/mL (≈ 5.83 µM); Activity [26]: Non-Toxic; mortality at 168 h [27]: 0%; Activity [28]: Non-Toxic
O=C(OCc1ccc([N+](=O)[O-])o1)c1ccc([N+](=O)[O-])c(Br)c1	4.38	> 64 µg/mL		> 64 µg/mL		> 64 µg/mL	175 µM		64 µg/mL (≈ 172 µM)	64 µg/mL (≈ 172 µM)	> 64 µg/mL	4 µg/mL (≈ 10.8 µM)		> 64 µg/mL		4.18	31 µM	> 64 µg/mL	Dose-Dependent Effect		Activity (Fusobacterium nucleatum [29]): Active
O=C(OCc1ccc([N+](=O)[O-])o1)c1ccc(C(F)(F)F)cc1[N+](=O)[O-]	4.31	> 64 µg/mL		> 64 µg/mL		> 64 µg/mL	81 µM		64 µg/mL (≈ 178 µM)	64 µg/mL (≈ 178 µM)	> 64 µg/mL	4 µg/mL (≈ 11.1 µM)		> 64 µg/mL		4.08	40 µM	> 64 µg/mL	Dose-Dependent Effect		Activity (Fusobacterium nucleatum [29]): Active
O=C(NCc1ccc(Br)nc1)c1ccc([N+](=O)[O-])o1	4.96	> 64 µg/mL	Dose-Dependent Effect	64 µg/mL (≈ 196 µM)	Dose-Dependent Effect	> 64 µg/mL	16 µM	Active	64 µg/mL (≈ 196 µM)	> 64 µg/mL	64 µg/mL (≈ 196 µM)	1 µg/mL (≈ 3.07 µM)	Dose-Dependent Effect	> 64 µg/mL	2400 mg/kg	4.49	16 µM	> 64 µg/mL	Dose-Dependent Effect	Active	Activity [18]: Non-Toxic; Activity [19]: Non-Toxic; Drug metabolism [20]: Metabolite_Detected; inhibition (Fusobacterium nucleatum [30]): Active; half-life at 1 µM [21]: 25.1 min; bioavailability [31]: 4.2%; half-life [32]: ~4.08 min; inhibition at 1 µg/mL (Fusobacterium nucleatum [23]): > 50%; clearance [33]: 601 mL/min/kg; Activity [24]: Non-Toxic; mortality at 168 h [8]: 70%; mortality at 168 h [12]: 20%; MIC90 (Fusobacterium nucleatum [13]): 4 µg/mL (≈ 12.3 µM); Ratio IC50 (MC-38 [34]): 8; Tmax [35]: 84 min; Activity [26]: Non-Toxic; Activity [28]: Non-Toxic; Cmax [36]: 85 ng/mL
O=[N+]([O-])c1ccc(COc2ccc([N+](=O)[O-])c(C(F)(F)F)c2)o1	4.42	> 64 µg/mL		> 64 µg/mL	Dose-Dependent Effect	64 µg/mL (≈ 193 µM)	21 µM		> 64 µg/mL	64 µg/mL (≈ 193 µM)	32 µg/mL (≈ 96.3 µM)	4 µg/mL (≈ 12 µM)		64 µg/mL (≈ 193 µM)		4.28	9.6 µM	64 µg/mL (≈ 193 µM)	Dose-Dependent Effect	Active	

Source: ChEMBL document CHEMBL5375955, “Discovery of New Fusobacterium nucleatum Inhibitors to Attenuate Migratory Capability of Colon Cancer Cells by the Drug Repositioning Strategy” (J Med Chem, 2023)
